Experimental data: ChEMBL document CHEMBL1147888, “Convenient one pot synthesis and antimicrobial evaluation of some new Mannich bases carrying 4-methylthiobenzyl moiety” (2007)
In brackets after ≈: the same amount, converted by molar mass.

Columns and labels:
Assay type in all cases: functional
[1] = system: Talaromyces marneffei; assay: Antifungal activity against Penicillium marneffei at 10 ug/ml after 3 to 4 days by serial dilution method; conditions: read-out: IZ
[2] = system: Aspergillus flavus; assay: Antifungal activity against Aspergillus flavus NICM524 after 3 to 4 days by serial dilution method
[3] = system: Candida albicans; assay: Antifungal activity against Candida albicans NICM3100 at 10 ug/ml after 3 to 4 days by serial dilution method; conditions: read-out: IZ
[4] = system: Aspergillus fumigatus; assay: Antifungal activity against Aspergillus fumigatus NICM902 after 3 to 4 days by serial dilution method
[5] = system: Escherichia coli; assay: Antibacterial activity against Escherichia coli ATCC 25922 after 24 hrs at 10 ug/ml by disc diffusion method; conditions: ATCC 25922, 24 h, read-out: IZ
[6] = system: Klebsiella pneumoniae; assay: Antibacterial activity against Klebsiella pneumoniae after 24 hrs at 10 ug/ml by disc diffusion method; conditions: read-out: IZ
[7] = system: Talaromyces marneffei; assay: Antifungal activity against Penicillium marneffei after 3 to 4 days by serial dilution method
[8] = system: Staphylococcus aureus; assay: Antibacterial activity against Staphylococcus aureus ATCC 25923 after 24 hrs by disc diffusion method; conditions: ATCC 25923, 24 h
[9] = system: Escherichia coli; assay: Antibacterial activity against Escherichia coli ATCC 25922 after 24 hrs by disc diffusion method; conditions: ATCC 25922, 24 h
[10] = system: Aspergillus fumigatus; assay: Antifungal activity against Aspergillus fumigatus NICM902 at 10 ug/ml after 3 to 4 days by serial dilution method; conditions: read-out: IZ
[11] = system: Candida albicans; assay: Antifungal activity against Candida albicans NICM3100 after 3 to 4 days by serial dilution method
[12] = system: Staphylococcus aureus; assay: Antibacterial activity against Staphylococcus aureus ATCC 25923 at 10 ug/ml after 24 hrs by disc diffusion method; conditions: ATCC 25923, 24 h, read-out: IZ
[13] = system: Pseudomonas aeruginosa; assay: Antibacterial activity against Pseudomonas aeruginosa ATCC 27853 after 24 hrs by disc diffusion method; conditions: ATCC 27853, 24 h
[14] = system: Aspergillus flavus; assay: Antifungal activity against Aspergillus flavus NICM524 at 10 ug/ml after 3 to 4 days by serial dilution method; conditions: read-out: IZ
[15] = system: Pseudomonas aeruginosa; assay: Antibacterial activity against Pseudomonas aeruginosa ATCC 27853 at 10 ug/ml after 24 hrs by disc diffusion method; conditions: ATCC 27853, 24 h, read-out: IZ
[16] = system: Klebsiella pneumoniae; assay: Antibacterial activity against Klebsiella pneumoniae after 24 hrs by disc diffusion method

Compound	zone of inhibition at 10 µg/mL [1] [mm]	MIC [2] [µg/mL]	zone of inhibition at 10 µg/mL [3] [mm]	MIC [4] [µg/mL]	zone of inhibition at 10 µg/mL [5] [mm]	zone of inhibition at 10 µg/mL [6] [mm]	MIC [7] [µg/mL]	MIC [8] [µg/mL]	MIC [9] [µg/mL]	zone of inhibition at 10 µg/mL [10] [mm]	MIC [11] [µg/mL]	zone of inhibition at 10 µg/mL [12] [mm]	MIC [13] [µg/mL]	zone of inhibition at 10 µg/mL [14] [mm]	zone of inhibition at 10 µg/mL [15] [mm]	MIC [16] [µg/mL]
CSc1ccc(Cc2nn(CN3CCN(C)CC3)c(=S)n2/N=C/c2ccc(F)cc2)cc1	10	25 (≈ 53.1 µM)	10	12.5 (≈ 26.6 µM)	12	10	12.5 (≈ 26.6 µM)	25 (≈ 53.1 µM)	25 (≈ 53.1 µM)	12	12.5 (≈ 26.6 µM)	12	12.5 (≈ 26.6 µM)	10	10	12.5 (≈ 26.6 µM)
CSc1ccc(Cc2nn(CN3CCOCC3)c(=S)n2/N=C/c2ccc(F)cc2)cc1	12	25 (≈ 54.6 µM)	10	12.5 (≈ 27.3 µM)	12	12	12.5 (≈ 27.3 µM)	25 (≈ 54.6 µM)	25 (≈ 54.6 µM)	10	12.5 (≈ 27.3 µM)	12	12.5 (≈ 27.3 µM)	10	12	12.5 (≈ 27.3 µM)
CSc1ccc(Cc2nn(CN3CCN(C)CC3)c(=S)n2/N=C/c2ccc(Cl)cc2)cc1	20	12.5 (≈ 25.7 µM)	19	6 (≈ 12.3 µM)	18	20	6 (≈ 12.3 µM)	12.5 (≈ 25.7 µM)	12.5 (≈ 25.7 µM)	20	6 (≈ 12.3 µM)	18	6 (≈ 12.3 µM)	18	24	6 (≈ 12.3 µM)
Cc1cc(C2CCCCC2)n(O)c(=O)c1.NCCO [CICLOPIROX OLAMINE]	20	12.5	20	6			6			22	6			18		
CSc1ccc(Cc2nn(CN3CCOCC3)c(=S)n2/N=C/c2ccc(Cl)cc2Cl)cc1	10	25 (≈ 49.2 µM)	10	12.5 (≈ 24.6 µM)	17	18	12.5 (≈ 24.6 µM)	12.5 (≈ 24.6 µM)	12.5 (≈ 24.6 µM)	12	12.5 (≈ 24.6 µM)	18	6 (≈ 11.8 µM)	10	23	6 (≈ 11.8 µM)
CSc1ccc(/C=N/n2c(Cc3ccc(SC)cc3)nn(CN3CCOCC3)c2=S)cc1	12	25 (≈ 51.5 µM)	10	12.5 (≈ 25.7 µM)	12	12	12.5 (≈ 25.7 µM)	25 (≈ 51.5 µM)	25 (≈ 51.5 µM)	12	12.5 (≈ 25.7 µM)	10	12.5 (≈ 25.7 µM)	10	12	12.5 (≈ 25.7 µM)
CSc1ccc(Cc2nn(CN3CCOCC3)c(=S)n2/N=C/c2ccc3c(c2)OCO3)cc1	10	25 (≈ 51.7 µM)	10	12.5 (≈ 25.8 µM)	10	10	12.5 (≈ 25.8 µM)	25 (≈ 51.7 µM)	25 (≈ 51.7 µM)	12	12.5 (≈ 25.8 µM)	10	12.5 (≈ 25.8 µM)	10	12	12.5 (≈ 25.8 µM)
CSc1ccc(Cc2nn(CN3CCN(C)CC3)c(=S)n2/N=C/c2ccc(Cl)cc2Cl)cc1	18	12.5 (≈ 24 µM)	20	6 (≈ 11.5 µM)	18	20	6 (≈ 11.5 µM)	12.5 (≈ 24 µM)	12.5 (≈ 24 µM)	22	6 (≈ 11.5 µM)	19	6 (≈ 11.5 µM)	18	25	6 (≈ 11.5 µM)
O=C(O)c1cn(C2CC2)c2cc(N3CCNCC3)c(F)cc2c1=O [CIPROFLOXACIN]	20		20		18	20		12.5 (≈ 37.7 µM)	12.5 (≈ 37.7 µM)	22		19	6 (≈ 18.1 µM)	18	25	6 (≈ 18.1 µM)
COc1ccc(/C=N/n2c(Cc3ccc(SC)cc3)nn(CN3CCN(C)CC3)c2=S)cc1	10	25 (≈ 51.8 µM)	10	12.5 (≈ 25.9 µM)	10	10	12.5 (≈ 25.9 µM)	25 (≈ 51.8 µM)	25 (≈ 51.8 µM)	12	12.5 (≈ 25.9 µM)	10	12.5 (≈ 25.9 µM)	12	10	12.5 (≈ 25.9 µM)
COc1ccc(/C=N/n2c(Cc3ccc(SC)cc3)nn(CN3CCOCC3)c2=S)cc1	12	25 (≈ 53.2 µM)	10	12.5 (≈ 26.6 µM)	10	10	12.5 (≈ 26.6 µM)	25 (≈ 53.2 µM)	25 (≈ 53.2 µM)	12	12.5 (≈ 26.6 µM)	12	12.5 (≈ 26.6 µM)	12	12	12.5 (≈ 26.6 µM)
CSc1ccc(Cc2nn(CN3CCN(C)CC3)c(=S)n2/N=C/c2ccc3c(c2)OCO3)cc1	10	25 (≈ 50.3 µM)	10	12.5 (≈ 25.2 µM)	12	10	12.5 (≈ 25.2 µM)	25 (≈ 50.3 µM)	25 (≈ 50.3 µM)	10	12.5 (≈ 25.2 µM)	10	12.5 (≈ 25.2 µM)	10	12	12.5 (≈ 25.2 µM)
CSc1ccc(Cc2nn(CN3CCOCC3)c(=S)n2/N=C/c2ccc(C)cc2)cc1	10	25 (≈ 55.1 µM)	12	12.5 (≈ 27.6 µM)	10	10	12.5 (≈ 27.6 µM)	25 (≈ 55.1 µM)	25 (≈ 55.1 µM)	10	12.5 (≈ 27.6 µM)	10	12.5 (≈ 27.6 µM)	12	12	12.5 (≈ 27.6 µM)
CSc1ccc(/C=N/n2c(Cc3ccc(SC)cc3)nn(CN3CCN(C)CC3)c2=S)cc1	12	25 (≈ 50.1 µM)	10	12.5 (≈ 25.1 µM)	10	10	12.5 (≈ 25.1 µM)	25 (≈ 50.1 µM)	25 (≈ 50.1 µM)	12	12.5 (≈ 25.1 µM)	12	12.5 (≈ 25.1 µM)	12	12	12.5 (≈ 25.1 µM)
CSc1ccc(Cc2nn(CN3CCOCC3)c(=S)n2/N=C/c2ccc(Cl)cc2)cc1	10	25 (≈ 52.7 µM)	10	12.5 (≈ 26.4 µM)	10	10	12.5 (≈ 26.4 µM)	25 (≈ 52.7 µM)	25 (≈ 52.7 µM)	10	12.5 (≈ 26.4 µM)	10	12.5 (≈ 26.4 µM)	10	12	12.5 (≈ 26.4 µM)
CSc1ccc(Cc2nn(CN3CCN(C)CC3)c(=S)n2/N=C/c2ccc(C)cc2)cc1	11	25 (≈ 53.6 µM)	12	12.5 (≈ 26.8 µM)	12	10	12.5 (≈ 26.8 µM)	25 (≈ 53.6 µM)	25 (≈ 53.6 µM)	10	12.5 (≈ 26.8 µM)	10	12.5 (≈ 26.8 µM)	12	12	12.5 (≈ 26.8 µM)
